In ChEMBL document CHEMBL6096634, “Exploration of novel 20S proteasome activators featuring anthraquinone structures and their application in hypoxic cardiomyocyte protection” (Bioorg Med Chem, 2024):
Active and inactive are the calls of the source. The calls are words filed in the database; no cut-off is given here.

Assays:
[1] = target: T1, 20S proteasome (Homo sapiens) (UniProt P49721+P20618+P28074+P28062+P28065+P28072+P25786+P25787+P25788+P25789+P28066+P60900+O14818+Q8TAA3+P40306+A5LHX3+P49720+P28070+Q99436); test: (§1) Activation of human erythrocyte-derived 20s proteosome using CT-L as peptide substrate by fluorescence based analysis; format: cell-based; settings: for EC200: filed as activator
20S proteasome [2] = test: as §1; format: cell-based
[3] = target: T1, 20S proteasome (Homo sapiens); test: Activation of human erythrocyte-derived 20s proteosome using T-L as peptide substrate by fluorescence based analysis; format: cell-based; settings: filed as activator
[4] = target: T1, 20S proteasome (Homo sapiens); test: Activation of human erythrocyte-derived 20s proteosome using CT-L as peptide substrate at 10 uM by fluorescence based analysis relative to control; format: cell-based; settings: filed as activator
20S proteasome [5] = test: (§2) Activation of 20s proteosome (unknown origin) mediated chymotrypsin-like activity; format: protein-complex assay, Homo sapiens
[6] = target: T1, 20S proteasome (Homo sapiens); test: Activation of 20s proteosome (unknown origin) mediated chymotrypsin-like activity assessed as fold maximum enhancement; format: protein-complex assay; settings: filed as activator
H9c2 [7] = test: Protection against hypoxia-induced cell damage in rat H9c2 cells at 0.05 uM incubated for 14 hrs by MTT assay; format: functional, cell-based
H9c2 [8] = test: Upregulation of Ki-67 expression in rat H9c2 cells at 0.25 uM under normoxic condition by qRT-PCR analysis; format: functional, cell-based
H9c2 [9] = test: Upregulation of Ki-67 expression in rat H9c2 cells at 0.25 uM under hypoxic condition by qRT-PCR analysis; format: functional, cell-based
H9c2 [10] = test: Effect on PCNA expression in rat H9c2 cells at 0.25 uM under normoxic condition by qRT-PCR analysis; format: functional, cell-based
H9c2 [11] = test: Effect on PCNA expression in rat H9c2 cells at 0.25 uM under hypoxic condition by qRT-PCR analysis; format: functional, cell-based
HEK293 = test: Inhibition of […]-induced ER stress in HEK293 cells harbouring XBP1-delta DBD-Luc cells assessed as decrease in luciferase activity incubated for 8 hrs by […]; format: functional, cell-based; settings: Homo sapiens, dose 10-20 µM
[12] = target: T1, 20S proteasome (Homo sapiens); test: as §2; format: protein-complex assay; settings: filed as activator

Row | Structure (SMILES) | EC200 [1] [µM] | EC50 (20S proteasome [2]) [µM] | fold change (FC) [3] | Activity [4] [%] | also measured
1 | CCCNc1cc(Nc2cccc(C)c2)c2c3c(onc13)-c1ccccc1C2=O | 0.4 | 4.36 | 10.6 | 594 | –
2 | Cc1cccc(Nc2cc(NCCN3CCOCC3)c3noc4c3c2C(=O)c2ccccc2-4)c1 | – | – | – | 47.9 | Activity [1]: inactive
3 | Cc1cccc(Nc2cc(NCCC(C)C)c3noc4c3c2C(=O)c2ccccc2-4)c1 | 0.19 | 2.09 | 2.08 | 175 | –
4 | O=C1c2ccccc2-c2onc3c(NCN4CCCCC4)cc(NCN4CCCCC4)c1c23 | – | – | – | 78.4 | Activity [1]: inactive
5 | Cc1ccc(Nc2cc(NCC(C)C)c3noc4c3c2C(=O)c2ccccc2-4)cc1 | 0.72 | 3 | 4.8 | 359 | –
6 | Cc1cccc(NC(=O)c2cc(O)c3c(c2)C(=O)c2cccc(O)c2C3=O)c1 | 1.67 | 2.26 | 6.5 | 567 | –
7 | CN1CCN(c2ccc(NC(=O)c3cc(O)c4c(c3)C(=O)c3cccc(O)c3C4=O)cc2)CC1 | 3.85 | 6.12 | 7.32 | 549 | –
8 | CC1(C)CC[C@]2(C(=O)O)CC[C@]3(C)C(=CC[C@@H]4[C@@]5(C)CC[C@H](O)C(C)(C)[C@@H]5CC[C@]43C)[C@@H]2C1 [OLEANOLIC_ACID] | – | – | – | – | EC50 (20S proteasome [5]): 2.7 µM; fold change (FC) [6]: 8
9 | Cc1ccc(Nc2cc(NCC(C)C)c(N)c3c2C(=O)c2ccccc2C3=O)cc1 | 0.66 | 3.68 | 5.38 | 377 | Activity (H9c2 [7]): Active; Activity (H9c2 [8]): Active; Activity (H9c2 [9]): Active; Activity (H9c2 [10]): inactive; Activity (H9c2 [11]): inactive; inhibition (HEK293): Active
10 | CC(C)CNc1cc(NC2CC2)c2c3c(onc13)-c1ccccc1C2=O | 1.41 | 3.3 | 4.71 | 361 | –
11 | CCOC(=O)[C@]1(c2ccccc2)N=C(c2ccc(OC)cc2)N(Cc2ccccc2)[C@@H]1c1ccc(NCc2ccccc2)cc1 | 0.91 | – | 4.31 | 438 | EC200 [12]: 1.4 µM; fold change (FC) [6]: 8.3
12 | O=C1c2cccc(O)c2C(=O)c2c(O)cc(C(=O)N3CCN(c4nccs4)CC3)cc21 | 1.18 | 3.57 | 4.07 | 453 | –
13 | CC(C)CNc1cc(Nc2ccc(N3CCOCC3)cc2)c2c3c(onc13)-c1ccccc1C2=O | 0.12 | 1.33 | 5.83 | 425 | Activity (H9c2 [7]): Active; inhibition (HEK293): Active
